Measurements as given in ChEMBL document CHEMBL3286307, “Imidazo[2,1]thiazol-3-one Derivatives Useful as Diagnostic Agents for Alzheimer's Disease” (ACS Med Chem Lett, 2014).

Experiments:
[1] = target: Microtubule-associated protein tau (Homo sapiens, UniProt P10636); test: Inhibition of recombinant human microtubule associated protein tau aggregation by Thiazin-red R displacement fluorescence assay
[2] = target: Amyloid-beta precursor protein (Homo sapiens, UniProt P05067); test: Inhibition of amyloid beta (unknown origin) aggregation by Thiazin-red R displacement fluorescence assay
Sequence of Amyloid-beta precursor protein (P05067 whole entry): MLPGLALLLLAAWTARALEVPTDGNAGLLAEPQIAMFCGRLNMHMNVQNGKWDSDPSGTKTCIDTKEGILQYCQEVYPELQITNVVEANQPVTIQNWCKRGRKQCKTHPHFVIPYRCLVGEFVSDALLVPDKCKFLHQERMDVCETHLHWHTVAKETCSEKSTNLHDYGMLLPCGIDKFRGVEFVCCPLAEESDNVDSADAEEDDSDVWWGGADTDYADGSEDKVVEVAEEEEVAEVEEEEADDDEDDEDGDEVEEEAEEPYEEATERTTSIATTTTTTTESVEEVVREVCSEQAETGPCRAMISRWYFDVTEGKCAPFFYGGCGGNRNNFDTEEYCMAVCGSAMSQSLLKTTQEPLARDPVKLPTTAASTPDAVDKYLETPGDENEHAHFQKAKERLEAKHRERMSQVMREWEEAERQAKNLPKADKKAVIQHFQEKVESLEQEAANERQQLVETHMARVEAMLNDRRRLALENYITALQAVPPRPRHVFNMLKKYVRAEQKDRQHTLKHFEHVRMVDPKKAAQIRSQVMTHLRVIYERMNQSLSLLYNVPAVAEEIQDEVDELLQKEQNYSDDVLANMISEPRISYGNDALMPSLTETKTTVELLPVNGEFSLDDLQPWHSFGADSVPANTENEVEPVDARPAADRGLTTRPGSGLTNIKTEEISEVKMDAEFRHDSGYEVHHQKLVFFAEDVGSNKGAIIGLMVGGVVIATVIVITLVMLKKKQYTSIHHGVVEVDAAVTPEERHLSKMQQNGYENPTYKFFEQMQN

Sequence of Microtubule-associated protein tau (P10636 whole entry): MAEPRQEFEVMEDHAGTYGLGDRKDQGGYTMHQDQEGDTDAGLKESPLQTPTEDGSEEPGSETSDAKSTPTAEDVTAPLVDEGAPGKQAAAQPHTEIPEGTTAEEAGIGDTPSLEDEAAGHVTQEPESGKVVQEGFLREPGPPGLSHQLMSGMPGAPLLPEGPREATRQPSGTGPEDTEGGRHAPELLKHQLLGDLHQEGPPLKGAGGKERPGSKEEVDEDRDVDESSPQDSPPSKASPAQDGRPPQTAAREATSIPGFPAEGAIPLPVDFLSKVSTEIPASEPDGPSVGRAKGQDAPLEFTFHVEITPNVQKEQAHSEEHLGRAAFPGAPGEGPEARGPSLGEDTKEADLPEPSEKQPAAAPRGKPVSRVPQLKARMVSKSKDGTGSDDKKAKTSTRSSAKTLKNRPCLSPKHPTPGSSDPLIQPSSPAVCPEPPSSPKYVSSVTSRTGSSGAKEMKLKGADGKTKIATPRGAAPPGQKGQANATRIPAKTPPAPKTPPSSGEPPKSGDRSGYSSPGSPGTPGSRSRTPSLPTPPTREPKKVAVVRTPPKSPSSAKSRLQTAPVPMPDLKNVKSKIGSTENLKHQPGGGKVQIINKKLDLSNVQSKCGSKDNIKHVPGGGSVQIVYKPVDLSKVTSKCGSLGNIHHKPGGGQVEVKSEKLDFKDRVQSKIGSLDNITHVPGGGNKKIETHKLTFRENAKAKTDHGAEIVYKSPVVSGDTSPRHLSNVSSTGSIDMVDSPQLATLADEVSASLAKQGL

Row | IC50 [1] [nM] | IC50 [2] [nM] | Compound
1 | 79 | > 10000 | COc1cc(/C=c2\sc3nc(-c4ccncc4C)cn3c2=O)ccc1O
2 |  | > 10000 | COc1cc(/C=c2\sc3nc(-c4cccc(OC(F)(F)F)c4)cn3c2=O)cc(F)c1O
3 | 8 | 32 | COc1cc(/C=c2\sc3nc(-c4ccncc4C)cn3c2=O)cc(OC)c1O
